Where two headings read alike, the source gives them in different places.
Tests used:
[1] = tested on: Capan-1 cells (K-Ras G12V); assay: CellTiter-Glo cell viability, Capan-1; assay type: cell-based, human; conditions: K-Ras G12V, 5-day treatment, read-out: Capan-1 Cell Viability IC50
Method in brief: (§1)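 Viability is read as luminescence after five days of compound exposure, with plates first equilibrated to room temperature for roughly 30 minutes. Each signal is expressed as a percentage of the mean DMSO control, and curves are fitted by four-parameter logistic regression.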

[2] = target: KRAS G12C (Homo sapiens (Human), UniProt P01116+P62937, G12C); assay: Ras-Raf disruption/FRET/MOA assay (BRAF RBD, Cyclophilin A); assay type: biochemical; conditions: read-out: KRAS G12C FRET IC50
Sequence of KRAS G12C (P01116-2 other isoform, or with tags, fused parts or gaps G12C): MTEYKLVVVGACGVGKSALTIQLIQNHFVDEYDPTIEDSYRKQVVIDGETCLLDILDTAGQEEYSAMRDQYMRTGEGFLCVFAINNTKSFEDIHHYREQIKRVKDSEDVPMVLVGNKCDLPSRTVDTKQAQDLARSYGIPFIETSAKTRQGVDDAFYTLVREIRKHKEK
Sequence of KRAS G12C (P62937 whole entry): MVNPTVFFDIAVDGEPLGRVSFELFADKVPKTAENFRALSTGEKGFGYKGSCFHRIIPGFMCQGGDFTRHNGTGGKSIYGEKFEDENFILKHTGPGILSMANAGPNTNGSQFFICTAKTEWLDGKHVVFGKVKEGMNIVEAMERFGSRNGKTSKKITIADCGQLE
Method in brief: (§2)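 First, 25 μM Cyclophilin A, 12.5 nM His6-Ras-GMPPNP and 50 nM GST-BRAF RBD are mixed with diluted compound at pH 7.3. Next, 3 h at 25° C. Then 10 nM anti-His Eu-W1024 plus 50 nM anti-GST allophycocyanin for 1.5 h before TR-FRET reading.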

[3] = target: KRAS G12D (Homo sapiens (Human), UniProt P01116+P62937, G12D); assay: as above; assay type: biochemical; conditions: read-out: KRAS G12D FRET IC50
Sequence of KRAS G12D (P01116 other isoform, or with tags, fused parts or gaps G12D): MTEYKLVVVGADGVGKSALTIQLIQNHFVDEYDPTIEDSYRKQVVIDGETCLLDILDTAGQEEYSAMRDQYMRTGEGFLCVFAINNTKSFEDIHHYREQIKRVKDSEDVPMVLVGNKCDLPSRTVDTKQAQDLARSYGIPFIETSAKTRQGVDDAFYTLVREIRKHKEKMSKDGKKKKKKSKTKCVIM
Sequence of KRAS G12D (P62937 whole entry): as the sequence (P62937 whole entry) above
Method in brief: as §2

[4] = target: KRAS G12S (Homo sapiens (Human), UniProt P01116+P62937, G12S); assay: as above; assay type: biochemical; conditions: read-out: KRAS G12S FRET IC50
Sequence of KRAS G12S (P01116 other isoform, or with tags, fused parts or gaps G12S): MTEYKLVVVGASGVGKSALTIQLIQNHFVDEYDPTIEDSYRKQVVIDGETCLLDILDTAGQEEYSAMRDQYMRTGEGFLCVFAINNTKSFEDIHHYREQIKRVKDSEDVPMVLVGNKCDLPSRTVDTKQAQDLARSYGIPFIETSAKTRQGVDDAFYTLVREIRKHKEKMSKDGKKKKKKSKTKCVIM
Sequence of KRAS G12S (P62937 whole entry): as the sequence (P62937 whole entry) above
Method in brief: as §2

[5] = target: KRAS G12V (Homo sapiens (Human), UniProt P01116+P62937, G12V); assay: as above; assay type: biochemical; conditions: read-out: KRAS G12V FRET IC50
Sequence of KRAS G12V (P01116 other isoform, or with tags, fused parts or gaps G12V): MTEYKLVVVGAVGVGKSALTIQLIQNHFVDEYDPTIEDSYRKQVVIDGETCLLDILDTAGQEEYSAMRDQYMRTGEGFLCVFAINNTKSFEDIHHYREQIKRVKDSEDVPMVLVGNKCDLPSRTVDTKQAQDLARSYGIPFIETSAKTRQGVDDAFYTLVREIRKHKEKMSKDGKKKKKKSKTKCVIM
Sequence of KRAS G12V (P62937 whole entry): as the sequence (P62937 whole entry) above
Method in brief: as §2

[6] = target: KRAS G13C (Homo sapiens (Human), UniProt P01116+P62937, G13C); assay: as above; assay type: biochemical; conditions: read-out: KRAS G13C FRET IC50
Sequence of KRAS G13C (P01116 other isoform, or with tags, fused parts or gaps G13C): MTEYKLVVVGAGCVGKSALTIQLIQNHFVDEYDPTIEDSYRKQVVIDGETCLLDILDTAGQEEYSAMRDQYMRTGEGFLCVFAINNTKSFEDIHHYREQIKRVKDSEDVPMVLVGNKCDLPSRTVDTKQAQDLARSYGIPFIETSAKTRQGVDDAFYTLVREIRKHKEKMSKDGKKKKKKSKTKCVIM
Sequence of KRAS G13C (P62937 whole entry): as the sequence (P62937 whole entry) above
Method in brief: as §2

[7] = target: KRAS G13D (Homo sapiens (Human), UniProt P01116+P62937, G13D); assay: as above; assay type: biochemical; conditions: read-out: KRAS G13D FRET data IC50
Sequence of KRAS G13D (P01116 other isoform, or with tags, fused parts or gaps G13D): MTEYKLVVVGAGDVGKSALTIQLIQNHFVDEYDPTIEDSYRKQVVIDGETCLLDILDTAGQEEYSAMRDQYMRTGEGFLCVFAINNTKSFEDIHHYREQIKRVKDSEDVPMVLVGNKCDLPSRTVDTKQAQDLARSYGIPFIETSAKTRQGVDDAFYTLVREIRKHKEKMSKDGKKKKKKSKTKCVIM
Sequence of KRAS G13D (P62937 whole entry): as the sequence (P62937 whole entry) above
Method in brief: as §2

[8] = target: KRAS WT (Homo sapiens (Human), UniProt P01116+P62937); assay: as above; assay type: biochemical; conditions: read-out: KRAS WT FRET data IC50
Sequence of KRAS WT (P01116 other isoform, or with tags, fused parts or gaps): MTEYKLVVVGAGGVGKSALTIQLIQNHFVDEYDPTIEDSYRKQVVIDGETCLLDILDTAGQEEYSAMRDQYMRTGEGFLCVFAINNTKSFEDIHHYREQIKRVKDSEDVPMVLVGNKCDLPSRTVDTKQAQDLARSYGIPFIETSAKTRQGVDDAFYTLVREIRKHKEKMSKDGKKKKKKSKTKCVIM
Sequence of KRAS WT (P62937 whole entry): as the sequence (P62937 whole entry) above
Method in brief: as §2

[9] = target: NRAS G12C (Homo sapiens (Human), UniProt P01111+P62937, G12C); assay: as above; assay type: biochemical; conditions: read-out: NRAS G12C FRET data IC50
Sequence of NRAS G12C (P01111 whole entry G12C): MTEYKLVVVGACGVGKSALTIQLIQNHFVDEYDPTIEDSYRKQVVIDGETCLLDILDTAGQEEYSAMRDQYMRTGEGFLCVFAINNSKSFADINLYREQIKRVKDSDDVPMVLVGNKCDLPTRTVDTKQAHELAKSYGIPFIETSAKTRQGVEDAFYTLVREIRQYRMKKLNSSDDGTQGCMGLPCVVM
Sequence of NRAS G12C (P62937 whole entry): as the sequence (P62937 whole entry) above
Method in brief: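 TR-FRET read after 1.5 h with 10 nM anti-His Eu-W1024 and 50 nM anti-GST APC, following 3 h at 25 °C of GMPPNP-loaded His6-Ras (12.5 nM), GST-BRAF RBD (50 nM) and Cyclophilin A (25 μM) with compound from 30 μM final, 10 points, 3-fold. IC50 reported; pH 7.3 HEPES, 100 mM NaCl.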

[10] = tested on: NCI-H358 (K-Ras G12C); assay: CellTiter-Glo cell viability assay, NCI-H358; assay type: cell-based, human; conditions: 5-day treatment, read-out: H358 Cell Viability assay data (K-Ras G12C, IC50)
Method in brief: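 Viability is measured as ATP-dependent luminescence (CellTiter-Glo) five days into compound treatment. Responses are normalized to vehicle (DMSO) wells and fitted by four-parameter logistic regression.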

[11] = target: K-Ras G12C(GMP-PNP) binding to BRAF RBD (Homo sapiens (Human), UniProt P01116+P62937, G12C); assay: Disruption of BRAF RBD interaction with K-Ras (FRET / MOA assay), K-Ras G12C; assay type: biochemical; conditions: read-out: KRAS G12C FRET IC50
Sequence of K-Ras G12C(GMP-PNP) binding to BRAF RBD (P01116 other isoform, or with tags, fused parts or gaps G12C): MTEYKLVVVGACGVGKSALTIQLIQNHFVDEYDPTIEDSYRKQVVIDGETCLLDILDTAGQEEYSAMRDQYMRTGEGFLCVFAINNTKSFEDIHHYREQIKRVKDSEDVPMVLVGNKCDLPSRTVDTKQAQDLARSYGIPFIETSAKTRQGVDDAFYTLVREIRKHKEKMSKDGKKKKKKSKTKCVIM
Sequence of K-Ras G12C(GMP-PNP) binding to BRAF RBD (P62937 whole entry, canonical isoform): as the sequence (P62937 whole entry) above
Method in brief: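 Incubation of compound (up to 30 μM final, 3-fold steps) with GMP-PNP-type loaded Ras isoform, cyclophilin A and BRAF RBD ran 3 h at 25° C, followed by 1.5 h with detection antibodies. Disruption appears as a reduced TR-FRET ratio compared with DMSO controls, expressed as IC50.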

[12] = tested on: NCI-H358 cells (K-Ras G12C); assay: CellTiter-Glo cell viability, NCI-H358; assay type: cell-based, human; conditions: K-Ras G12C, 5-day treatment; read-out: H358 Cell Viability IC50
Method in brief: as §1

Row | Structure (SMILES) | IC50 ([1]; Homo sapiens, CAPAN-1, 120 h) [nM] | IC50 [2] [nM] | IC50 [3] [nM] | IC50 [4] [nM] | IC50 [5] [nM] | IC50 [6] [nM] | IC50 [7] [nM] | IC50 [8] [nM] | IC50 [9] [nM] | IC50 ([10]; Homo sapiens, NCI-H358, 120 h) [nM] | IC50 [11] [nM] | IC50 [12] [nM] | IC50 [1] [nM] | IC50 [10] [nM]
1 | CCn1c(-c2cccnc2[C@H](C)OC)c2c3cc(ccc31)-c1csc(n1)C[C@H](NC(=O)[C@H](C(C)C)N(C)C(=O)N1CCN(C(C)=O)CC1)C(=O)N1CCC[C@H](N1)C(=O)OCC(C)(C)C2 [Compound A291] | 10 to 100 | 10 to 100 | 100 to 1000 | 10 to 100 | 100 to 1000 | 100 to 1000 | 100 to 1000 | 10 to 100 | 10 to 100 | < 10 | < 10 |  |  | 
2 | CCn1c(-c2cccnc2[C@H](C)OC)c2c3cc(ccc31)-c1cc(O)cc(c1)C[C@H](NC(=O)[C@@H]1[C@@H](C)CCCN1C(C)=O)C(=O)N1CCC[C@H](N1)C(=O)OCC(C)(C)C2 [Compound A324] | 1000 to 10000 | 100 to 1000 | 1000 to 10000 | 100 to 1000 | 100 to 1000 | 10 to 100 | 100 to 1000 | 100 to 1000 | 100 to 1000 | < 10 | < 10 |  |  | 
3 | CCn1c(-c2cccnc2[C@H](C)OC)c2c3cc(ccc31)-c1csc(n1)C[C@H](NC(=O)[C@H](C(C)C)N(C)C(=O)N1CC(N3CCOCC3)C1)C(=O)N1CCC[C@H](N1)C(=O)OCC(C)(C)C2 [Compound A338] | 10 to 100 | 10 to 100 | 1000 to 10000 | 100 to 1000 | 100 to 1000 | 100 to 1000 | 100 to 1000 | 100 to 1000 | 10 to 100 | 10 to 100 | 10 to 100 |  |  | 
4 | CCn1c(-c2cc(N3CCN(C)CC3)cnc2[C@H](C)OC)c2c3cc(ccc31)-c1nc(co1)C[C@H](NC(=O)[C@H]1[C@H](C)[C@@H]1C)C(=O)N1CCC[C@H](N1)C(=O)OCC(C)(C)C2 [Compound A391, (1r,2R,3S)—N-((6^3S,4S,Z)-1^1-ethyl-1^2-(2-((S)-1-methoxyethyl)-5-(4-methylpiperazin-1-yl)pyridin-3-yl)-10,10-dimethyl-5,7-dioxo-6^1,6^2,6^3,6^4,6^5,6^6-hexahydro-1^1H-8-oxa-2 (2,4)-oxazola-1 (5,3)-indola-6 (1,3)-pyridazinacycloundecaphane-4-yl)-2,3-dimethylcyclopropane-1-carboxamide] |  | 10 to 100 | 10 to 100 | 10 to 100 | 10 to 100 | 10 to 100 |  |  |  |  | < 10 | 10 to 100 | 1000 to 10000 | < 10
5 | CCn1c(-c2cccnc2[C@H](C)OC)c2c3cc(ccc31)-c1cc(O)cc(c1)C[C@H](NC(=O)[C@H](C(C)C)N(C)C(=O)C1CN3CCCN1CC3)C(=O)N1CCC[C@H](N1)C(=O)OCC(C)(C)C2 (stereo partly shown) [Compound A404] | > 10000 | 100 to 1000 | 100 to 1000 | 100 to 1000 | 1000 to 10000 | 100 to 1000 | 100 to 1000 | 100 to 1000 | 100 to 1000 | 10 to 100 | 100 to 1000 |  |  | 
6 | CCO[C@@H]1c2nc(cs2)-c2ccc3c(c2)c(c(-c2cc(C4CCN(C5COC5)CC4)cnc2[C@H](C)OC)n3CC)CC(C)(C)COC(=O)[C@@H]2CCCN(N2)C(=O)[C@H]1NC(=O)[C@H]1[C@H](C)[C@@H]1C [Compound A449, (1r,2R,3S)—N-((6^3S,3S,4S,Z)-3-ethoxy-1^1-ethyl-1^2-(2-((S)-1-methoxyethyl)-5-(1-(oxetan-3-yl)piperidin-4-yl)pyridin-3-yl)-10,10-dimethyl-5,7-dioxo-6^1,6^2,6^3,6^4,6^5,6^6-hexahydro-1^1H-8-oxa-2 (4,2)-thiazola-1 (5,3)-indola-6 (1,3)-pyridazinacycloundecaphane-4-yl)-2,3-dimethylcyclopropane-1-carboxamide] |  | 100 to 1000 | 1000 to 10000 | 1000 to 10000 | 1000 to 10000 | 100 to 1000 |  |  |  |  | 100 to 1000 | 100 to 1000 | 100 to 1000 | 10 to 100
7 | CCn1c(-c2cccnc2[C@H](C)OC)c2c3cc(ccc31)-c1csc(n1)[C@@H](OCC1CCN(C)CC1)[C@H](NC(=O)[C@H]1C[C@@H]1C)C(=O)N1CCC[C@H](N1)C(=O)OCC(C)(C)C2 [Compound A451, (1S,2S)—N-((6^3S,3S,4S,Z)-1^1-ethyl-1^2-(2-((S)-1-methoxyethyl)pyridin-3-yl)-10,10-dimethyl-3-((1-methylpiperidin-4-yl)methoxy)-5,7-dioxo-6^1,6^2,6^3,6^4,6^5,6^6-hexahydro-1^1H-8-oxa-2 (4,2)-thiazola-1 (5,3)-indola-6 (1,3)-pyridazinacycloundecaphane-4-yl)-2-methylcyclopropane-1-carboxamide] |  | 100 to 1000 | 1000 to 10000 | 100 to 1000 | 100 to 1000 | 100 to 1000 |  |  |  |  | 100 to 1000 | 10 to 100 | 10 to 100 | 10 to 100
8 | CCn1c(-c2cccnc2[C@H](C)OC)c2c3cc(ccc31)-c1csc(n1)C[C@H](NC(=O)[C@H](C(C)C)N(C)C(=O)N1CC[C@H]1CN)C(=O)N1CCC[C@H](N1)C(=O)OCC(C)(C)C2 [Compound A463] | 1000 to 10000 | 100 to 1000 | 100 to 1000 | 100 to 1000 | 100 to 1000 | 100 to 1000 | 100 to 1000 | 100 to 1000 | 100 to 1000 | < 10 | 10 to 100 |  |  | 
9 | CCn1c(-c2cccnc2[C@H](C)OC)c2c3cc(ccc31)-c1csc(n1)C[C@H](NC(=O)[C@H](C(C)C)N(C)C(=O)N1CC[C@]3(CCNC3=O)C1)C(=O)N1CCC[C@H](N1)C(=O)OCC(C)(C)C2 [Compound A479] | 1000 to 10000 | 100 to 1000 | 1000 to 10000 | 1000 to 10000 | 1000 to 10000 | 1000 to 10000 | 1000 to 10000 | 1000 to 10000 | 100 to 1000 | < 10 | < 10 |  |  | 
10 | CCn1c(-c2cccnc2[C@H](C)OC)c2c3cc(ccc31)-c1csc(n1)C[C@H](NC(=O)[C@H](C(C)C)N(C)C(=O)N1CCC13CCS(=O)(=O)CC3)C(=O)N1CCC[C@H](N1)C(=O)OCC(C)(C)C2 [Compound A530] | 100 to 1000 | 100 to 1000 | 1000 to 10000 | 100 to 1000 | 100 to 1000 | 100 to 1000 | 1000 to 10000 | 100 to 1000 | 100 to 1000 | 10 to 100 | 100 to 1000 |  |  | 
11 | CCn1c(-c2cccnc2[C@H](C)OC)c2c3cc(ccc31)-c1csc(n1)C[C@H](NC(=O)[C@H](C(C)C)N(C)C(=O)N1CC[C@@H]1CN)C(=O)N1CCC[C@H](N1)C(=O)OCC(C)(C)C2 [Compound A558] | 100 to 1000 | 10 to 100 | 100 to 1000 | 10 to 100 | 100 to 1000 | 100 to 1000 | 10 to 100 | 10 to 100 | 10 to 100 | 10 to 100 | 10 to 100 |  |  | 
